Reference: ChEMBL document CHEMBL1126996, “Structure-activity relationships of 6-substituted benzopyran-4-carbothioamide potassium channel openers” (Bioorg Med Chem Lett, 1993)

Columns and labels:
[1] = species on record: Rattus norvegicus; assay: Percent of intrinsic activity for vasorelaxant effect; type: functional
[2] = species on record: Rattus norvegicus; assay: Negative logarithm of the molar concentration required to relax rat aorta precontracted with 30 mM KCl by 50% of IA; type: functional

Row | Structure (SMILES) | IA [1] [%] | EC50 [2] [nM]
1 | C/N=C(/S)C1=CC(C)(C)Oc2ccc(Cl)cc21 | 73.1 | 37.2
2 | C/N=C(/S)C1=CC(C)(C)Oc2ccc(C(F)(F)C(F)(F)F)cc21 | 55.4 | 12.6
3 | C/N=C(/S)C1=CC(C)(C)Oc2ccc([N+](=O)[O-])cc21 | 63.5 | 1.35
4 | C/N=C(/S)C1=CC(C)(C)Oc2ccc(S(C)(=O)=O)cc21 | 69.8 | 457
5 | CCc1ccc2c(c1)C(/C(S)=N\C)=CC(C)(C)O2 | 78.7 | 324
6 | C/N=C(/S)C1=CC(C)(C)Oc2ccccc21 | 89.3 | 4270
7 | C/N=C(/S)C1=CC(C)(C)Oc2ccc(OC(F)(F)F)cc21 | 76.1 | 4.07
8 | C/N=C(/S)C1=CC(C)(C)Oc2ccc(Br)cc21 | 67.5 | 9.33
9 | C/N=C(/S)C1=CC(C)(C)Oc2ccc(C#N)cc21 | 89 | 24.5
10 | C/N=C(/S)C1=CC(C)(C)Oc2ccc(C(F)(F)F)cc21 | 73 | 2.04
11 | C/N=C(/S)C1=CC(C)(C)Oc2ccc(S(=O)(=O)c3ccccc3)cc21 | 73.7 | 19.1
12 | C/N=C(/S)C1=CC(C)(C)Oc2ccc(OC(C)=O)cc21 | 76.1 | 95.5
13 | CNC(=S)C1=CC(C)(C)Oc2ccc(OC)cc21 | 61.5 | 417
14 | CC1(C)Oc2ccc(C#N)cc2[C@@H](N2CCCC2=O)[C@@H]1O [CROMAKALIM] | 74.7 | 170
